Key:
TNF-α and IL-1β mRNA = experiment: IL-1β and TNFα mRNA expression after CHI (real-time PCR); format: in vivo, mice; conditions: 3 hours after CHI, 50 mg/kg, relative to β-actin, P<0.05
Description: IL-1β and TNFα mRNA levels were quantified 3 hours post-injury by real time polymarerase chain reaction. β-actin was used as endogenous control. *p<0.05 vs. vehicle, as determined by student's t-tests.
The mRNA levels of these cytokines were quantified at 3 hours after CHI using real-time PCR.

rat TRPV4 = biological target: T1, rat TRPV4 (Rattus norvegicus, UniProt Q9ERZ8); experiment: Calcium imaging of TRPV4 transfected HEK293 cells; format: cell-based; conditions: IA 100 μM, compared to vehicle
T1 construct: expressed in transfected cells; host or cells: HEK293 cell line
T1 sequence (Q9ERZ8 whole entry): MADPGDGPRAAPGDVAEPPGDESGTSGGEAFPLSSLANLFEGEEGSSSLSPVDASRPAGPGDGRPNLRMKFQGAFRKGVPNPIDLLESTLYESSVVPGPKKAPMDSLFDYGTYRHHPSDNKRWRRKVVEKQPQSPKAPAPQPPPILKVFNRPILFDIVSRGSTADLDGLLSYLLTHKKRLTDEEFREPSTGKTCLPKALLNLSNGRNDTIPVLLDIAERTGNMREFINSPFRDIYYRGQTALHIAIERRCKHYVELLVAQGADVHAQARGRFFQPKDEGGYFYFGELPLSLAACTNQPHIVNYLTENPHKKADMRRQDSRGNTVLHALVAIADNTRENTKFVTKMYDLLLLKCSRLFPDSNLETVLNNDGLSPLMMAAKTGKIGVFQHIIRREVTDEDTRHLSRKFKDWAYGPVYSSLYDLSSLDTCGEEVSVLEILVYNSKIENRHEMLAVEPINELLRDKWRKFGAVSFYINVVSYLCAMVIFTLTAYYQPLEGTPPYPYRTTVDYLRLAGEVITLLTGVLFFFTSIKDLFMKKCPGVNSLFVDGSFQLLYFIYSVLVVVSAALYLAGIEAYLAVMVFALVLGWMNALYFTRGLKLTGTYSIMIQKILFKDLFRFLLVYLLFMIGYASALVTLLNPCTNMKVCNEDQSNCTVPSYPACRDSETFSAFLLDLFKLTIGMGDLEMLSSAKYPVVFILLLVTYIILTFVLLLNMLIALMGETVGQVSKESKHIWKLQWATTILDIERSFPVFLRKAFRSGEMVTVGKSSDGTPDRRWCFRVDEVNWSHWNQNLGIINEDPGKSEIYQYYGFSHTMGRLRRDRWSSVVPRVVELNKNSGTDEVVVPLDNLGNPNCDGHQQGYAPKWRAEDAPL
Description: All error bars indicate SEM; p values in all subfigures but c represent analysis with one-way ANOVA Bonferroni's post hoc.
TRPV3-YFP [O'dell, D. K., Rimmerman, N., Pickens, S. R. & Walker J. M. Fatty acyl amides of endogenous tetrahydroisoquinolines are active at the recombinant human TRPV1 receptor. Bioorg. Med. Chem. 15, 6164-6169 (2007)], TRPV4 and mock-transfected cell lines were cultured in DMEM 1× with L-glutamine (Mediatech, Inc. Herndon, Va.), containing 1% penicillin-streptomycin (Invitrogen, Carlsbad, Calif.) and 10% foetal bovine serum.
Calcium imaging of HEK 293 cells. TRPV1, TRPV3, and TRPV4 expressing HEK293 cells were plated 24-48 h before imaging in 96 well plates, loaded with 3 μM Fura-2 AM and imaged as previously described [O'dell, D. K., Rimmerman, N., Pickens, S. R. & Walker J. M. Fatty acyl amides of endogenous tetrahydroisoquinolines are active at the recombinant human TRPV1 receptor. Bioorg. Med. Chem. 15, 6164-6169 (2007)].

c-Fos = c-Fos immunoreactivity in mouse brain; format: in vivo, female Sabra mice; conditions: 50 mg/kg i.p., 60 min after administration
From the text: The drawings were modified from plates 30; 38,45, 89 respectively from Paxinos and Franklin (2001). The atlas sections are arranged from anterior a to posterior d. The number under each section indicates its distance (mm) from the bregma. “A” is anterior to bregma and “P” is posterior to bregma.
For analysis of c-Fos immunoreactivity, positive nuclei were identified based on their round form and optical density at least twice that of background. The numbers of c-Fos immunoreactive nuclei from the right and left hemispheres were averaged to obtain a representative number for the given region from each mouse. Student t tests were performed comparing the control (vehicle) with the IA group.
The effect of IA on different brain regions were studied by looking at the effect of IA on c-Fos immunoreactivity in mice brains 60 min after administration of IA (50 mg/kg; i.p.). The c-Fos transcription factor is a product of an immediate early gene and its increase serves as a marker of enhanced neuronal activity. It is thus used in histological sections to map out brain regions that are activated or attenuated after treatment with psychoactive drugs [Werme, M., Ringholm, A., Olson, L. & Brene S. Differential patterns of induction of NGFI-B, Norl and c-fos mRNAs in striatal subregions by haloperidol and clozapine. Brain Res. 863, 112-119 (2000); and Dragunow, M., Robertson, G. S., Faull, R. L., Robertson, H. A. & Jansen, K. D2 dopamine receptor antagonists induce fos and related proteins in rat striatal neurons. (1990) Neuroscience 37, 287-294]. […] The central nucleus of the amygdala and the lateral septum play major roles in the expression of emotions [Thompson, B. L. & Rosen, J. B. Immediate-early gene expression in the central nucleus of the amygdala is not specific for anxiolytic or anxiogenic drugs. Neuropharmacology 50, 57-68 (2006); and Henry, B., Vale, W. & Markou, A. The effect of lateral septum corticotropin-releasing factor receptor 2 activation on anxiety is modulated by stress. J. Neurosci. 26, 9142-9152 (2006)]; it is assumed that c-Fos expression in the central nucleus of the amygdala is due to circuits that are engaged by both anxiolytic and anxiogenic drugs [Thompson, B. L. & Rosen, J. B. Immediate-early gene expression in the central nucleus of the amygdala is not specific for anxiolytic or anxiogenic drugs. Neuropharmacology 50, 57-68 (2006).]

cancer cells = experiment: Cell proliferation test (MTT); format: cell-based; conditions: three days
Description: In each MTT assay every concentration of the cytotoxic substance was tested in five replicates in microplate wells. Assays with every cell line were carried out in two to three repeated experiments. The inhibitory effect of various compounds was calculated as percentage inhibition in comparison with the values obtained in untreated wells to which vehicle (ethanol 0.5%) was added.
Aliquots (200 μL) of suspensions of cancer cells were dispensed into wells of 96-well tissue culture plates at densities of 0.02×10^6 cells/well. Various concentrations of IA were introduced into the wells, and their efficacy was tested three days after initiation of the cultures, using the 3-(4,5-dimethylthiazol-2-yl)-2,5-diphenyltetrazolium bromide (MTT) assay. The principle of this assay is that cells which survive following exposure to various compounds can reduce MTT to a dark -colored formazan, while dead cells are incapable of doing so. In each MTT assay every concentration of the cytotoxic substance was tested in five replicates in microplate wells. Assays with every cell line were carried out in two to three repeated experiments. The inhibitory effect of various compounds was calculated as percentage inhibition in comparison with the values obtained in untreated wells to which vehicle (ethanol 0.5%) was added.

For `CC(=O)OC1CC/C(C)=C/CC/C(C)=C/CC2(C(C)C)CCC1(C)O2` (centres unmarked) [IA, incensole acetate], the “IL-1β mRNA expression” value (TNF-α and IL-1β mRNA) was “significantly inhibited mRNA expression”, the “TNF-α mRNA expression” value (TNF-α and IL-1β mRNA) was “significantly inhibited mRNA expression” and the “calcium influx in TRPV4 transfected HEK293 cells” value (rat TRPV4) was “very modest calcium influx”. The “c-Fos in the central nucleus of the amygdala” value (c-Fos) was “significantly increased c-Fos”, the “c-Fos in the hippocampal CA3 region” value (c-Fos) was “significantly reducing c-Fos” and the “c-Fos in the lateral septum” value (c-Fos) was “significantly increased c-Fos”. For the same compound, the “c-Fos in the medial striatum” value (c-Fos) was “significantly reducing c-Fos”, the “c-Fos in the motor cortex” value (c-Fos) was “significantly reducing c-Fos” and the “c-Fos in the solitary nucleus” value (c-Fos) was “significantly increased c-Fos”. The “proliferation of cells, other cell lines (FIG. 11B)” value (cancer cells) was “no effect” and the “proliferation of cells, several cell lines (FIG. 11A)” value (cancer cells; hematopoetic cells) was “inhibited the proliferation of cells”.
